Here are results for four compounds from patent US8722616B2, “Anti-HIV peptides and methods of use thereof” (priority 2009, dated 2014).

A short description of one data set: in vitro. The conditions noted are these: human. The protocol: (§1) Anti-HIV cytopathic effect inhibition assays were conducted as described (Buckheit et al. (1995) Antimicrob. Agents Chemother., 39:2718-2727). In brief, serially diluted peptides were added to a 96-well round bottom microtiter plate in triplicate. CEM-SS cells at a concentration of 2.5×10^3 cells per well and HIV-1IIIB at the appropriate pre-determined titer were sequentially added to the microtiter plate. The cultures were incubated at 5% CO2/37° C. for six days. Following the incubation, the microtiter plates were stained with XTT tetrazolium dye to evaluate the efficacy and toxicity of the test compound(s).
as §1, with “Cytopathic Effect (CPE) Inhibition Assay: The CPE assay was performed” for “Anti-HIV cytopathic effect inhibition assays were conducted”, “as previously” for “as”, “Briefly,” for “In brief,”, “compound was” for “peptides were”

For the next data set, the system named is CEM-SS cells. Kind of data set: in vitro. As to the method:
as §1
as §1, with “Cytopathic Effect (CPE) Inhibition Assay: The CPE assay was performed” for “Anti-HIV cytopathic effect inhibition assays were conducted”, “as previously” for “as”, “Briefly,” for “In brief,”, “compound was” for “peptides were”

For a further data set, the system named is HIV-1IIIB. Kind of data set: microbe, parasite or virus in culture. As to the method:
as §1
as §1, with “Cytopathic Effect (CPE) Inhibition Assay: The CPE assay was performed” for “Anti-HIV cytopathic effect inhibition assays were conducted”, “as previously” for “as”, “Briefly,” for “In brief,”, “compound was” for “peptides were”

For data set [1], the system named is methicin-resistant Staphylococcus aureus (MRSA) USA-300. From the text: (§2) The frequently used residues identified in each kingdom may be applied to peptide design in different ways. First, new antimicrobial peptides can be designed based on ‘templates derived from naturally occurring antimicrobial peptides’. […] Second, new antimicrobial peptides can be designed by ‘combining database-derived peptide motifs’, consisting of frequently used residues. Using the motifs consisting of only residues Gly, Leu and Lys, a second peptide was designed. […] Third, new peptides can be designed based on ‘amino acid percentages obtained from statistical analysis of antimicrobial peptides’ from a specific kingdom or peptide family. Thus, a third peptide was designed in three steps. (i) The amino acid composition for MULTI-18 was obtained by multiplying the percentage of each residue with the total number of residues (18 here) in the target peptide. […] (iii) Multiple peptides can be obtained by combining the above motifs. Only one peptide was designed by following the amphipathic pattern for helical peptides.

For the next data set, the system named is E. coli K12.
Text: as §2

A further data set has as its system HIV. Conditions: literature; cited from earlier work.

Read-outs that look alike come from different tables or passages of the source. No end group written: not given here. Some results are limits rather than exact numbers.

In turn, `Cc1cn([C@H]2C[C@H](N=[N+]=[N-])[C@@H](CO)O2)c(=O)[nH]c1=O` [AZT, reference compound] gave a CC50 at 6 days in “in vitro” of over 0.5 µM. Besides, the CC50 with CEM-SS cells (human, 6 days) is over 0.5 µM. In addition, the EC50 (usually the concentration at which the effect is half-maximal) with HIV-1IIIB (Human immunodeficiency virus 1) came out at 0.007 µM; in the data set on HIV-1IIIB (Human immunodeficiency virus 1, CEM-SS), 0.007 µM.

Turning to GLKKLLGKLLKKLGKLLLK [GLK-19], the results for the IC50 (in data set [1] (USA-300); with E. coli K12 (K12)) were 160 µM and 10 µM, respectively. The compound also gave a CC50 with CEM-SS cells of 25.1 µM. Further, the concentration for a half-maximal effect (EC50) in the data set on HIV-1IIIB (1IIIB) was over 47.5 µM.

Regarding KKLLKKLKKLLK [KL-12], the “inactive against MRSA USA-300 until” value in data set [1] was over 160 mM. For the same compound, the “inactive against E. coli K12 until” value in the data set with E. coli K12 is over 160 mM.

As for “indolicidin (ILPWKWPWWPWRR; ends and bridges not checked; UniProt P33046 131-143, looked up) [bovine Trp- and Pro-rich cathelicidin peptide]”, in the data set with HIV, the “concentration required to be effective against HIV” value is 333 µg/mL.
